Source: ChEMBL document CHEMBL1140636, “Targeting cytochrome P450 enzymes: a new approach in anti-cancer drug development” (Bioorg Med Chem, 2007)

Assays:
[1] = target: T1, Cytochrome P450 26A1 (Homo sapiens, UniProt O43174); assay: Inhibition of CYP26
T1 sequence (O43174 whole entry): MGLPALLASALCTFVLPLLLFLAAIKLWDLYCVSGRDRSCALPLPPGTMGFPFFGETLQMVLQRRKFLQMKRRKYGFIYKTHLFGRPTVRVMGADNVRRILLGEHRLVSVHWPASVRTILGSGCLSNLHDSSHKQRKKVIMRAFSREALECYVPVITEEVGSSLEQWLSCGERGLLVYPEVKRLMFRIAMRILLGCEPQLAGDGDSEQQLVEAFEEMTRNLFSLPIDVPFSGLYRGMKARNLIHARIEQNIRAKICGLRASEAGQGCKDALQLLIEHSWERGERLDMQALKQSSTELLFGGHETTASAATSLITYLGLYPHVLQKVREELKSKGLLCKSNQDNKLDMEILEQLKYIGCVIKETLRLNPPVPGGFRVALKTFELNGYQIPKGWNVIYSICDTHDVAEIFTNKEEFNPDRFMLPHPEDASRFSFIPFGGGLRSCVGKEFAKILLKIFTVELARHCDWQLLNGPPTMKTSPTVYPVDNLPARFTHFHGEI

[2] = target: T2, Sterol 26-hydroxylase, mitochondrial (Homo sapiens, UniProt Q02318); assay: Inhibition of CYP27A1
T2 sequence (Q02318 whole entry): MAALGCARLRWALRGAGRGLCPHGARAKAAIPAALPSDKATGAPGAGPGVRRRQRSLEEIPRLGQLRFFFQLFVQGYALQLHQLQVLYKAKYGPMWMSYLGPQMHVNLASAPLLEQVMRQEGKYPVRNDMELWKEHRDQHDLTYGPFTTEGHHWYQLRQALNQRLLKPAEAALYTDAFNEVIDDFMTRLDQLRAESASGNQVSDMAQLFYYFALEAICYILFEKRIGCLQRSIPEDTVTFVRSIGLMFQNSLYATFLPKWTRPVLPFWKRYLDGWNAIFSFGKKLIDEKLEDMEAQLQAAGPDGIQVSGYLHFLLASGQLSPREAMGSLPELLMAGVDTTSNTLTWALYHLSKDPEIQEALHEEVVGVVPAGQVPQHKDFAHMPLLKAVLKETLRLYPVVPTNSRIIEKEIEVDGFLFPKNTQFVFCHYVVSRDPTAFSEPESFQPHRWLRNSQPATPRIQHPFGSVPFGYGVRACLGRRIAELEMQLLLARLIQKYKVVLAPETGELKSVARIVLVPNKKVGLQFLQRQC

[3] = target: T3, 1,25-dihydroxyvitamin D(3) 24-hydroxylase, mitochondrial (Homo sapiens, UniProt Q07973); assay: Inhibition of CYP24
T3 sequence (Q07973 whole entry): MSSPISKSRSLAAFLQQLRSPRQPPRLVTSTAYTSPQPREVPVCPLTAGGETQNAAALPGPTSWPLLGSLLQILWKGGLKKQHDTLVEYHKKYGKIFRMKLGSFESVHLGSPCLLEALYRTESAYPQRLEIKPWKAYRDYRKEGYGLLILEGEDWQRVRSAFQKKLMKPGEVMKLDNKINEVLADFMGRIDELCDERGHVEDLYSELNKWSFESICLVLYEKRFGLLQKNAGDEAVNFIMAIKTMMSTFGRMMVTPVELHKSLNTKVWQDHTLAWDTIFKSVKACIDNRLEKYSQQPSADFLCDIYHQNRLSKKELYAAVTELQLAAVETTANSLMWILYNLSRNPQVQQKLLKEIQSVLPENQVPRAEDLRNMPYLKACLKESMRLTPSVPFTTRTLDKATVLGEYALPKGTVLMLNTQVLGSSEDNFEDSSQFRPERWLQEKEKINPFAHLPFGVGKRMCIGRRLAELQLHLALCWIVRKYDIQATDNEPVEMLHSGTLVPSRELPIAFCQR

[4] = target: T4, 25-hydroxyvitamin D-1 alpha hydroxylase, mitochondrial (Homo sapiens, UniProt O15528); assay: Inhibition of CYP27B1
T4 sequence (O15528 whole entry): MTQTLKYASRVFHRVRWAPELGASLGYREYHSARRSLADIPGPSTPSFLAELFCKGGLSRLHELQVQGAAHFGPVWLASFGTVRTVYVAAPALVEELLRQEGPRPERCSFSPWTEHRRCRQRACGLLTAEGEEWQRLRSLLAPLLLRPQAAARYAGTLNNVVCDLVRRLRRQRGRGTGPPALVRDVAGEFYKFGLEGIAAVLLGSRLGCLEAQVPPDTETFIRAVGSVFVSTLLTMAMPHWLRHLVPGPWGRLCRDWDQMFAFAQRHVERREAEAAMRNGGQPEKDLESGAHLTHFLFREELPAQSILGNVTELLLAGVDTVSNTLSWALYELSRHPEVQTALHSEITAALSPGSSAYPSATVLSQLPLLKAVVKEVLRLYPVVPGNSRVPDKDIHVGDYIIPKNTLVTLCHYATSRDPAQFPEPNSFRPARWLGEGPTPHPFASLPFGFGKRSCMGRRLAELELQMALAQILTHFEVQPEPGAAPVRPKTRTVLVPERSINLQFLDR

[5] = target: T5, Cytochrome P450 1B1 (Homo sapiens, UniProt Q16678); assay: Inhibition of CYP1B1; format: ADME
T5 sequence (Q16678 whole entry): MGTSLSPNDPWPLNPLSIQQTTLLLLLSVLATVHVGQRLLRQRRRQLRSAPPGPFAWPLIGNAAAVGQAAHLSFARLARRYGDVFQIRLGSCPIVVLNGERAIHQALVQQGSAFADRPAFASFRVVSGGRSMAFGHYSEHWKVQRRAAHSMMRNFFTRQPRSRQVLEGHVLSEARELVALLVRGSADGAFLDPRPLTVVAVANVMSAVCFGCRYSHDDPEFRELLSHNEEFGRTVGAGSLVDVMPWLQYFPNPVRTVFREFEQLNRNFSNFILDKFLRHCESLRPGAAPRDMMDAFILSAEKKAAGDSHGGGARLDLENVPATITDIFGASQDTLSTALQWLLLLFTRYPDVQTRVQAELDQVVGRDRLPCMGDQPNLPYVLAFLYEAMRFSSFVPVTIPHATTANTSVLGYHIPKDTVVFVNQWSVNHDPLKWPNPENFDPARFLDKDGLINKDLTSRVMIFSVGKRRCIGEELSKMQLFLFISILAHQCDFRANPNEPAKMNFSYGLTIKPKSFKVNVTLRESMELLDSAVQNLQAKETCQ

[6] = target: T6, Cytochrome P450 1A1 (Homo sapiens, UniProt P04798); assay: Inhibition of CYP1A1; format: ADME
T6 sequence (P04798 whole entry): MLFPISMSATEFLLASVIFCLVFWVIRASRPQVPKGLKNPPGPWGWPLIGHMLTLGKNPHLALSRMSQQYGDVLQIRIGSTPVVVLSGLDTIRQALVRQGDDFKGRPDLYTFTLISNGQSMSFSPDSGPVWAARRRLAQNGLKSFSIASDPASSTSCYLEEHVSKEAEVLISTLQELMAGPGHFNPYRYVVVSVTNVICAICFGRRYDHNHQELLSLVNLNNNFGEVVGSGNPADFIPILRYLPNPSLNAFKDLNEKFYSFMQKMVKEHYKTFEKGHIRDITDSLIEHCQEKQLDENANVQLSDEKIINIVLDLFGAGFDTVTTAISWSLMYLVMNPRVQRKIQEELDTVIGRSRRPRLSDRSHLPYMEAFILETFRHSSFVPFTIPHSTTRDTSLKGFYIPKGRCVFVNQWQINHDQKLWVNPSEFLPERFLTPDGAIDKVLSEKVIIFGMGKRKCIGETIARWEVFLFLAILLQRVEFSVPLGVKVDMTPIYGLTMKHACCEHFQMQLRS

[7] = target: T7, Cytochrome P450 1A2 (Homo sapiens, UniProt P05177); assay: Inhibition of CYP1A2; format: ADME
T7 sequence (P05177 whole entry): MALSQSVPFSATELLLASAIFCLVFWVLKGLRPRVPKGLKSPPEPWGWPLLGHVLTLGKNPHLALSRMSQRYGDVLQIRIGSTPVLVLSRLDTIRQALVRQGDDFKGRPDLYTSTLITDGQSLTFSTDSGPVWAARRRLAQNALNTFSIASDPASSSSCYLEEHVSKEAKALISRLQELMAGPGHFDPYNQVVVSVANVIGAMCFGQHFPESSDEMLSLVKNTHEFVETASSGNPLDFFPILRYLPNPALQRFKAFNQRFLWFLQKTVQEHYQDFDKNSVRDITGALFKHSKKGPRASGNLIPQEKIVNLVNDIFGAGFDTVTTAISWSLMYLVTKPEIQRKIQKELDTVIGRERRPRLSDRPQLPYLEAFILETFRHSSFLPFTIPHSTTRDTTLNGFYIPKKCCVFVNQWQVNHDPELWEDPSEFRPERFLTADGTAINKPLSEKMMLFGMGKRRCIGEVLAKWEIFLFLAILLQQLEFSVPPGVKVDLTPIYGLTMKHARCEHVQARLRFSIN

[8] = Inhibition of cigarette smoke condensate-induced growth of immortalized human BEAS-2B cells by soft agar colony assay; format: functional
[9] = target: T8, Aryl hydrocarbon receptor (Homo sapiens, UniProt P35869); assay: Inhibition of aryl hydrocarbon receptor
T8 sequence (P35869 whole entry): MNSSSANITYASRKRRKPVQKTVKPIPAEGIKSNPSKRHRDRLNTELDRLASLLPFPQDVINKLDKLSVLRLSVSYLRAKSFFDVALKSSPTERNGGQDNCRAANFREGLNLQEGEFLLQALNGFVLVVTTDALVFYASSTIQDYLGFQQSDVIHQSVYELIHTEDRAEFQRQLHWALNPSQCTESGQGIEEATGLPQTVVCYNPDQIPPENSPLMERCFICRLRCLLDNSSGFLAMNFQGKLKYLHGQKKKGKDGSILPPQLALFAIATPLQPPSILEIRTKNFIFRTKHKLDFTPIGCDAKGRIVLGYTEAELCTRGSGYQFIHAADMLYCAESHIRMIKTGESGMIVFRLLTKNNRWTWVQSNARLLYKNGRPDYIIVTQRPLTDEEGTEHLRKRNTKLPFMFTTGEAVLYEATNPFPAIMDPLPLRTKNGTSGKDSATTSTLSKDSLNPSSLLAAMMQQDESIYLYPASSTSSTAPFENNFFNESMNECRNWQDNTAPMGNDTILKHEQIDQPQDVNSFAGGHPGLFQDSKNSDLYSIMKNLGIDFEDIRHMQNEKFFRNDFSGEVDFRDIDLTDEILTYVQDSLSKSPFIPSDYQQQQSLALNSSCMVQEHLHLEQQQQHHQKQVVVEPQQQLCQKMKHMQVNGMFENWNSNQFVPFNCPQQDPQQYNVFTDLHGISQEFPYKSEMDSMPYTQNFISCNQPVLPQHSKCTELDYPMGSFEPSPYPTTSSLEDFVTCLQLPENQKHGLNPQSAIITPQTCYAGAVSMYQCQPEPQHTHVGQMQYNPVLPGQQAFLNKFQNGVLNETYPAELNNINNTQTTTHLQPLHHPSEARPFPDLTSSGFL

[10] = target: T3, 1,25-dihydroxyvitamin D(3) 24-hydroxylase, mitochondrial; assay: Inhibition of CYP24 in human keratinocytes; format: cell-based
[11] = target: T4, 25-hydroxyvitamin D-1 alpha hydroxylase, mitochondrial; assay: Inhibition of CYP27B1 in human keratinocytes; format: cell-based

| Structure (SMILES) | IC50 [5] | IC50 [6] | IC50 [7] | other results |
| --- | --- | --- | --- | --- |
| Clc1cccc(C(c2ccc3nc[nH]c3c2)N2C=NCC2)c1 (stereo not drawn) |  |  |  | IC50 [1]: 2.2 µM |
| C=C1/C(=C\C=C2/CCC[C@]3(C)C([C@H](C)CC[S+](=N)([O-])c4ccccc4)=CCC23)C[C@@H](O)C[C@@H]1O (stereo partly drawn) |  |  |  | IC50 [2]: > 1 µM; IC50 [3]: 0.0074 µM; IC50 [4]: 0.554 µM |
| CC#Cc1ccc2c(ccc3ccccc32)c1 | 0.03 µM | 0.15 µM | 0.06 µM |  |
| c1cc2ccc3cccc4ccc(c1)c2c34 [PYRENE] | 0.002 µM | 0.041 µM | 0.007 µM |  |
| Clc1ccc(-c2cc(Cl)c(Cl)c(Cl)c2)cc1Cl [POLYCHLORINATED BIPHENYL 126] | 0.011 µM |  |  |  |
| O=c1c(O)c(-c2ccc(O)cc2)oc2cc(O)cc(O)c12 [KAEMPFEROL] |  |  |  | IC90 [8]: 10 µM; IC50 [9]: 0.028 µM |
| O=C(NCC(c1ccccc1)n1ccnc1)c1ccc(-c2ccc(Cl)cc2)cc1 (stereo not drawn) |  |  |  | IC50 [10]: 0.015 µM; IC50 [11]: 0.616 µM |
| COc1cc(/C=C\c2cccs2)cc(OC)c1 | 0.002 µM | 0.061 µM | 0.011 µM |  |
